Measurements as given in the NIST ThermoML archive (doi:10.1016/j.tca.2013.07.005).
Numbers after ± are expanded uncertainties.

Assays:
[1] = Crystal; for vapor or sublimation pressure: Transpiration method; for Normal melting temperature: DTA
[2] = Molar enthalpy of transition or fusion; conditions: Crystal; DSC

CC(=O)c1ccc(NC2=NCCC3(CCCCC3)S2)cc1
[1]
Conditions	vapor or sublimation pressure [kPa]
373.15 K	4.1e-09
375.15 K	5.3e-09
377.15 K	6.8e-09
379.15 K	8.8e-09
381.15 K	1.13e-08
383.15 K	1.46e-08
385.15 K	1.87e-08
386.15 K	2.15e-08
387.15 K	2.52e-08
388.15 K	2.87e-08
390.15 K	3.44e-08
391.15 K	3.72e-08
392.15 K	4.46e-08
393.15 K	5.03e-08
394.15 K	5.5e-08
396.15 K	7.28e-08
397.15 K	7.97e-08

Conditions	Molar enthalpy of transition or fusion [kcal/mol]	Normal melting temperature [°C]
[1]	–	163.5 ± 2.1
[2]	7.77 ± 0.287	–

O=C(NC1=NCCC2(CCCCC2)S1)c1ccccc1 [N-(1-thia-3-azaspiro[5.5]undec-2-en-2-yl)benzamide]
[1]
Conditions	vapor or sublimation pressure [kPa]
353.15 K	2.2e-09
354.15 K	2.3e-09
357.15 K	3.1e-09
360.15 K	3.8e-09
363.15 K	4.8e-09
366.15 K	5.8e-09
368.15 K	6.8e-09
371.15 K	8.9e-09
373.15 K	1.06e-08
375.15 K	1.28e-08
377.15 K	1.4e-08
378.15 K	1.51e-08
380.15 K	1.85e-08
381.15 K	2e-08
383.15 K	2.26e-08
386.15 K	2.87e-08

Conditions	Molar enthalpy of transition or fusion [kcal/mol]	Normal melting temperature [°C]
[1]	–	130.2 ± 2.1
[2]	6.67 ± 0.287	–

COc1ccc(NC2=NCCC3(CCCCC3)S2)cc1 [N-(4-methoxyphenyl)-1-thia-3-azaspiro[5.5]undec-2-en-2-amine]
[1]
Conditions	vapor or sublimation pressure [kPa]
353.15 K	3.4e-09
355.15 K	4.7e-09
358.15 K	6.5e-09
360.15 K	9.5e-09
362.15 K	1.15e-08
365.15 K	1.64e-08
367.15 K	2.17e-08
369.15 K	2.73e-08
371.15 K	3.63e-08
373.15 K	4.28e-08
375.15 K	5.23e-08
377.15 K	6.63e-08
381.15 K	9.73e-08

Conditions	Molar enthalpy of transition or fusion [kcal/mol]	Normal melting temperature [°C]
[1]	–	115.4 ± 2.1
[2]	6.52 ± 0.263	–
